The values that follow come from patent US8916593B2, “Alkoxy-substituted 2-aminopyridines as ALK inhibitors” (Pfizer Inc., priority 2010, dated 2014).

One test deals with T1, ALK enzyme (Homo sapiens, UniProt Q9UM73).
T1 construct: purchased Invitrogen PV4185
Briefly: ALK enzymatic activity assay 1. It is filed as biochemical. As to the method: ALK Enzymatic Activity Assay 1
Compounds were added at a final concentration of 1% DMSO in half-log dilutions, starting at 20 μM final concentration. The reactions were initiated by the addition of 10 μL of peptide/ATP mix to 10 μL enzyme and 2 μL of compound in 384-well plate. […] On the 12-sipper chip, substrate and phosphorylated product were separated with an upstream voltage of −2650 V, a downstream voltage of −500 V, and a screen pressure of −1.5 psi. The relative peak heights of substrate and product were measured and ratios were calculated using HTS Well Analyzer Software version 5.2.43 from the manufacturer.

Test [1] addresses EML4-ALK wt v1 in NIH-3T3 cells (Homo sapiens, UniProt Q9UM73).
For test [2], the target named is T2, human recombinant wild-type ALK kinase domain (amino acids 1093-1411) (Homo sapiens, UniProt Q9UM73).
T2 construct: ALK kinase domain (amino acids 1093-1411); made in house
Briefly: ALK enzyme assay 2 (microfluidic mobility shift assay).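 Note: kinase reaction run 1 h at room temperature, conversion quantified by electrophoretic separation of fluorescent peptide substrate from phosphorylated product, about 15-20% turnover without inhibitor.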 Format: biochemical.
Description: The reactions were incubated for 1 h at room temperature, stopped by the addition of 0.1 M EDTA, pH 8, and the extent of reactions (˜15-20% conversion with no inhibitor) was determined after electrophoretic separation of the fluorescently labeled peptide substrate and phosphorylated product on an LabChip EZ Reader II (Caliper Life Sciences, Hopkinton, Mass.).

The next test addresses T3, cMet enzyme (Homo sapiens, UniProt P08581).
T3 construct: RTC Lot#032006
Description: cMet enzymatic activity assay. It is filed as biochemical. The following applies: purified cMet enzyme 7.5 nM, ATP 17 μM (Km).

pIC50, pKi: −log10 of the molar value. Some results are limits rather than exact numbers.

EML4-ALK wt v1 in NIH-3T3 cells, sequence (Q9UM73 with tags, fused parts or gaps): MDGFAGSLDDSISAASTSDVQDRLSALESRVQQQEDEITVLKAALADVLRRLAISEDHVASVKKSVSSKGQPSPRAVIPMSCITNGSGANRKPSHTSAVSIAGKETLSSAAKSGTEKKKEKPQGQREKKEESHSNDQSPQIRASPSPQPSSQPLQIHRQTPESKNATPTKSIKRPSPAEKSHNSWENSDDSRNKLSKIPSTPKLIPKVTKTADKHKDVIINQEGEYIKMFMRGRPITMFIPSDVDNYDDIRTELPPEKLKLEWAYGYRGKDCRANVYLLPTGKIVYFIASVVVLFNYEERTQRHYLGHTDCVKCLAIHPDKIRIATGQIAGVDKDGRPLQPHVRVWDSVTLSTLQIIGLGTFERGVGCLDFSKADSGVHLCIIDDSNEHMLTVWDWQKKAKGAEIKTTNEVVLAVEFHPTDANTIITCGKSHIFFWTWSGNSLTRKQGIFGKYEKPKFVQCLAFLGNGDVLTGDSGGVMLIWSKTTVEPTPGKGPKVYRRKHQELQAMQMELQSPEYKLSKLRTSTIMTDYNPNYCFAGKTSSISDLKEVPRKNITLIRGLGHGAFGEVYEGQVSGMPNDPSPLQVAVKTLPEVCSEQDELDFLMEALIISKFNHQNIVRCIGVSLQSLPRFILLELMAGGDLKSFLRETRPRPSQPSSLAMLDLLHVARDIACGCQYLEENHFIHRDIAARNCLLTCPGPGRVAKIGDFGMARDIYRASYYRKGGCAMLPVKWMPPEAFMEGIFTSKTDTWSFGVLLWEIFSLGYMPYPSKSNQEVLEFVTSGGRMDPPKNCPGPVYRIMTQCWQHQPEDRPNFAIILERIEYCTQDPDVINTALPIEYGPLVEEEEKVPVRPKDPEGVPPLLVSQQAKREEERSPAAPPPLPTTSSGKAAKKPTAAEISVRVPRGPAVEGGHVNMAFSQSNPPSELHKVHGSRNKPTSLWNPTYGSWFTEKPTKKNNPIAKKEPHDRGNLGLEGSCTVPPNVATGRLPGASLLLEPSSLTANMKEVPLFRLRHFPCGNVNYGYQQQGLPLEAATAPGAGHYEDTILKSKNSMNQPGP
T2 sequence (Q9UM73 1093-1411): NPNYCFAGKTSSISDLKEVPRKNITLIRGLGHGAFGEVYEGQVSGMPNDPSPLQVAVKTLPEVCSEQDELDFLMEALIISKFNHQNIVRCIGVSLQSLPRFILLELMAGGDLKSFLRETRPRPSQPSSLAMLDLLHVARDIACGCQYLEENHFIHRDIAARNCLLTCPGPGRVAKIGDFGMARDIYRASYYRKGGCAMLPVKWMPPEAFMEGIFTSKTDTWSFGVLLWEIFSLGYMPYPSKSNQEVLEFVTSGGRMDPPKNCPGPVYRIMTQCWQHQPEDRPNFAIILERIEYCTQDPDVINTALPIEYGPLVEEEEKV
T3 sequence (P08581 25-1390): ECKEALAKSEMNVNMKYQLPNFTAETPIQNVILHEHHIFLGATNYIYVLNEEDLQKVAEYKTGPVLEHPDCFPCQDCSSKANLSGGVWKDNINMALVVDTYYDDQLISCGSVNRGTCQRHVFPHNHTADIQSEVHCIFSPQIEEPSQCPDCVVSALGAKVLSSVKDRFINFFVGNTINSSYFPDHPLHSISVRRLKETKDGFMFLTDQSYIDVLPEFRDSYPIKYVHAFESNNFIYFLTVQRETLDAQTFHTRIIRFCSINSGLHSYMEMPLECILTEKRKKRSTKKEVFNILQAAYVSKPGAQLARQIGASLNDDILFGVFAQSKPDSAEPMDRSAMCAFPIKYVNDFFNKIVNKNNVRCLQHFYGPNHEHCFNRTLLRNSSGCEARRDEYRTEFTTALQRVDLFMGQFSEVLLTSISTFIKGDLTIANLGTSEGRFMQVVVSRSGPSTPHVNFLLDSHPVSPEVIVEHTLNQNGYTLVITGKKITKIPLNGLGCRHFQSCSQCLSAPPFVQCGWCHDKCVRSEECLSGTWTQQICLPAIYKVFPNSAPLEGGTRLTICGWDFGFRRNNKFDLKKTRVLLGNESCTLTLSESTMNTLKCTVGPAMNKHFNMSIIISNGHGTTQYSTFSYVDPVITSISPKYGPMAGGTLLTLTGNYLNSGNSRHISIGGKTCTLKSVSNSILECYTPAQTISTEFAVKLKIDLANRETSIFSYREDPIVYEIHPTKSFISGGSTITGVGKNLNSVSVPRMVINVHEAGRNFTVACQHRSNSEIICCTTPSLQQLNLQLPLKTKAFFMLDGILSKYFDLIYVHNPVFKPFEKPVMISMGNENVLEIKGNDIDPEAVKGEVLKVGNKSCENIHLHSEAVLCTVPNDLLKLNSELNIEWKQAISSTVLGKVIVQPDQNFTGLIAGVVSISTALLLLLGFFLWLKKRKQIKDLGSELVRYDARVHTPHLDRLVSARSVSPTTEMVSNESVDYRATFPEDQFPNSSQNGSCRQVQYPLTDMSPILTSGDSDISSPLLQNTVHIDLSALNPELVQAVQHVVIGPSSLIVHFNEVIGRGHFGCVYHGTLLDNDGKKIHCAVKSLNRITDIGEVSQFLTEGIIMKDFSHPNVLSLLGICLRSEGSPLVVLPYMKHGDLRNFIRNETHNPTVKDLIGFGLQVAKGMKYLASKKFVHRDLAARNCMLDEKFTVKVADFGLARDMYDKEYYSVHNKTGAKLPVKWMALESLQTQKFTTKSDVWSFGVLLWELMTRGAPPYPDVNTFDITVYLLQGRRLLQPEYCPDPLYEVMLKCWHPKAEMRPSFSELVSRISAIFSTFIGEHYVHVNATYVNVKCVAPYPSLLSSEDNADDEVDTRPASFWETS
T1 sequence (Q9UM73 19-1620): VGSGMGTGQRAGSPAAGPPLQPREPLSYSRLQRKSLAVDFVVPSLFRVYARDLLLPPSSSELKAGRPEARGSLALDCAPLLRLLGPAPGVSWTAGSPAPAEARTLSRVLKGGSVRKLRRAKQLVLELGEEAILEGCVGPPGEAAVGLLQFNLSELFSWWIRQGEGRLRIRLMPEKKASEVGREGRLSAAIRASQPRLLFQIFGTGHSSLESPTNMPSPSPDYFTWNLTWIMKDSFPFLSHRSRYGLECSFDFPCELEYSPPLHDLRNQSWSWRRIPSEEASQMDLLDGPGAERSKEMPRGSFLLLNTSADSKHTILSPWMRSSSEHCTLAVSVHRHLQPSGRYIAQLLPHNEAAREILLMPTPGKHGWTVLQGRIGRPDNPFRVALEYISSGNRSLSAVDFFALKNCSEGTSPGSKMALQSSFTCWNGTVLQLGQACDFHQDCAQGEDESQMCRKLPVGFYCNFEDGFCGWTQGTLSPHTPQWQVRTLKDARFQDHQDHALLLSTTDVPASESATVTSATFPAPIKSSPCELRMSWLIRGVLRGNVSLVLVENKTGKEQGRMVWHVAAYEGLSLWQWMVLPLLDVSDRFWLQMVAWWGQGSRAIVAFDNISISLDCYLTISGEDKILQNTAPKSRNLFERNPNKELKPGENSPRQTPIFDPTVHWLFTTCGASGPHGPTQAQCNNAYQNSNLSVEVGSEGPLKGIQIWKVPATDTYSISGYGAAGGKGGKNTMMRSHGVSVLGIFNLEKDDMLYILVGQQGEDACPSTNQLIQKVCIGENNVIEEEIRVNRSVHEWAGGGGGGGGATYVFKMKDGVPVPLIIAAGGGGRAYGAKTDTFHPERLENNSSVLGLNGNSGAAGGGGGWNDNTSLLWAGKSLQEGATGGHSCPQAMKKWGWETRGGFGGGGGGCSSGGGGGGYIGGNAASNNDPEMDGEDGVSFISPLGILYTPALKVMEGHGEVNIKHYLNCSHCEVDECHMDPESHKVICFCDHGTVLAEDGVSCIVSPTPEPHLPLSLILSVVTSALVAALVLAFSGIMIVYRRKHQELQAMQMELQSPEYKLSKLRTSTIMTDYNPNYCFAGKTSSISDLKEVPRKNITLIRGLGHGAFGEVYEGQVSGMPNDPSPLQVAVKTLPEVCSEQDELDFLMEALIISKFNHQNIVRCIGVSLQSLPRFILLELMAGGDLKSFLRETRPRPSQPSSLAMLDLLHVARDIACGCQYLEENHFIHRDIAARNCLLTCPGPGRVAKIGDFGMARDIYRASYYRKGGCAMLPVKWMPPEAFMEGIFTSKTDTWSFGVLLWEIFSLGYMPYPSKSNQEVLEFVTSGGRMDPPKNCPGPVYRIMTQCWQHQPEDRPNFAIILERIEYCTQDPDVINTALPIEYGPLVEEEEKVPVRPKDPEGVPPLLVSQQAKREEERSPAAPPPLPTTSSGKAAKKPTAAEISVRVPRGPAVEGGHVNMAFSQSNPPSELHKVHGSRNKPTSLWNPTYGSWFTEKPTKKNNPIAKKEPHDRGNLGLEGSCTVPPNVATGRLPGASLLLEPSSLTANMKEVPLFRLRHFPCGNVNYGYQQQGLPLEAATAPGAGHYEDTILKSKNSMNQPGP

A word on the pIC50: it is −log10 of the IC50, conventionally taken in molar units. Low values mean a high IC50, high ones a low IC50. In general, pKi refers to the Ki on a negative log10 scale, so that one unit is a factor of ten. Regarding `COc1ccc(F)cc1C(C)Oc1nc(-c2cn(C)c(C)n2)cnc1N` (centres unmarked) [Example 57, 5-(1,2-dimethyl-1H-imidazol-4-yl)-3-[1-(5-fluoro-2-methoxyphenyl)ethoxy]pyrazin-2-amine], the pIC50 at ALK enzyme was 7.23; in test [1], 6.61; against cMet enzyme, below 4.70. In addition, in test [2], the negative-log Ki (pKi) was 8.27.
In the same order, the values of `COc1ccc(F)cc1C(C)Oc1nc(-c2cn(C)cn2)cnc1N` (centres unmarked) [Example 58, 3-[1-(5-fluoro-2-methoxyphenyl)ethoxy]-5-(1-methyl-1H-imidazol-4-yl)pyrazin-2-amine] are 7.06, 6.80, below 4.70 and 8.89.
For `CC(Oc1nc(-c2cn(C)cn2)cnc1N)c1cc(F)ccc1Cl` (centres unmarked) [Example 59, 3-[1-(2-chloro-5-fluorophenyl)ethoxy]-5-(1-methyl-1H-imidazol-4-yl)pyrazin-2-amine] the same measures were 6.90, 6.20, below 4.70 and 7.89.
For the compound `COc1ccc(F)cc1C(C)Oc1nc(-c2nccn2C)cnc1N` (centres unmarked) [Example 60, 3-[1-(5-fluoro-2-methoxyphenyl)ethoxy]-5-(1-methyl-1H-imidazol-2-yl)pyrazin-2-amine], the figures for the negative logarithm of the IC50 (pIC50) (against ALK enzyme; in test [1]; on cMet enzyme) were 7.17, 6.26 and below 4.70, respectively. The negative logarithm of the Ki (pKi) in test [2] is 8.19.
In the case of `CC(Oc1cc(-c2ccnn2C)cnc1N)c1cc(F)ccc1-c1ncco1` (centres unmarked) [Example 62, 3-{1-[5-fluoro-2-(1,3-oxazol-2-yl)phenyl]ethoxy}-5-(1-methyl-1H-pyrazol-5-yl)pyridin-2-amine], the negative logarithm of the IC50 (pIC50) against ALK enzyme was 7.30; in test [1], 6.72; on cMet enzyme it was 5.55. Also, the negative logarithm of the Ki (pKi) in test [2] was 8.34.
